Molecular target: T1, human GLP-1 receptor (Homo sapiens, UniProt P43220)
T1 construct: expressed in transfected cells
Experiment: GLP-1R cAMP Assay
Format: cell-based
Settings: cAMP accumulation in CHO cells stably overexpressing the human GLP-1 receptor; 30 min treatment; HitHunter cAMP kit; read-out: EC50
Protocol: cAMP accumulation was measured in Chinese hamster ovary (CHO) cells stably overexpressing the human GLP-1 receptor using the HitHunter cAMP Assay for Small Molecules Kit (Eurofins). Briefly, cells were grown in Ham's F12 Nutrient Mix with 10% FBS, and lifted with Cell Dissociation Buffer, Enzyme free, PBS based (ThermoFisher). […] The anti-cAMP antibody reagent was then added to cells at a 1:2 ratio and 5 μL of mixture was seeded in 384-well small volume white assay plates, at 10,000 cells/well. Cells were then treated with 50 nL compound using an ECHO 550 acoustic dispenser (Labcyte) in a 20-point dose response format in triplicate for 30 min. Cells were then lysed, and detection reagents added according to the manufacturer's protocol. After overnight incubation, luminescence was measured using a Perkin Elmer Envision plate reader. Dose response curves were analyzed using GraphPad Prism 9.0.

T1 sequence (P43220 24-463): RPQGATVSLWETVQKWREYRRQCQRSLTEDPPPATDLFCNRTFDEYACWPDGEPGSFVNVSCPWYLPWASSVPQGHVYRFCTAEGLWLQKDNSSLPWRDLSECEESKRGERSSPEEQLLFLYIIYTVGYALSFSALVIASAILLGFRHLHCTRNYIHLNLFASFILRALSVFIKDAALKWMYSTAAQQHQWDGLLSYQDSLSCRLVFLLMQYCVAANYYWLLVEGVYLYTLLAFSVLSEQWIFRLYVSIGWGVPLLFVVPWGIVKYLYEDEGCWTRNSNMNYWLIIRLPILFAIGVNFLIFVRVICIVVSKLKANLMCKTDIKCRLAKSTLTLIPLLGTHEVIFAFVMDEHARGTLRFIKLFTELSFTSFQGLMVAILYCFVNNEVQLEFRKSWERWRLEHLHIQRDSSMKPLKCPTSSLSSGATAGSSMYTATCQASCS

Question: Which EC50 does the source give for `C[C@H](Oc1ccc(Cl)cc1Cl)c1ccc(C(=O)N2CCN(Cc3nc4ccc(C(=O)O)cc4n3C[C@@H]3CCO3)CC2)o1` (single isomer, unassigned) [Example 96] here?
Answer: The EC50 was greater than 500 nM.

Question: Which EC50 does the source give for `CCn1cncc1Cn1c(CN2CCC(Cc3cnc(COc4ccc(Cl)cc4C)o3)CC2)nc2ccc(C(=O)O)cc21` [Compound 141, 2-{[4-({2-[(4-chloro-2-methylphenoxy)methyl]-1,3-oxazol-5-yl}methyl)piperidin-1-yl]methyl}-1-[(1-ethyl-1H-imidazol-5-yl)methyl]-1H-1,3-benzodiazole-6-carboxylic acid] here?
Answer: Its EC50 is less than 50 nM.

Question: `Cc1ccc(Oc2cccc(C(=O)N3CCN(Cc4nc5ccc(C(=O)O)cc5n4C[C@@H]4CCO4)CC3)c2)c(F)c1` [Compound 16, 2-({4-[3-(2-fluoro-4-methylphenoxy)benzoyl]piperazin-1-yl}methyl)-1-{[(2S)-oxetan-2-yl]methyl}-1H-1,3-benzodiazole-6-carboxylic acid] was tested. Which EC50 did it give?
Answer: The EC50 was greater than 500 nM.

Question: `N#CCC1(Cn2c(CN3CCC(Oc4ccnc(COc5ccc(Cl)cc5Cl)n4)CC3)nc3ccc(C(=O)O)cc32)CC1` [Compound 340] was tested. Which EC50 did it give?
Answer: Its EC50 is less than 50 nM.

Question: `N#Cc1ccc(OCc2ccc(C(=O)N3CCN(Cc4nc5ccc(C(=O)O)cc5n4C[C@@H]4CCO4)CC3)o2)c(F)c1` [Compound 37, 2-[(4-{5-[(4-cyano-2-fluorophenoxy)methyl]furan-2-carbonyl}piperazin-1-yl)methyl]-1-{[(2S)-oxetan-2-yl]methyl}-1H-1,3-benzodiazole-6-carboxylic acid] was tested. Which EC50 did it give?
Answer: The EC50 was greater than 500 nM.

Question: `CCn1cncc1Cn1c(CN2CCC(Cc3cccc(COc4ccc(C5CC5)cc4Cl)n3)CC2)nc2ccc(C(=O)O)cc21` [Compound 153, 2-{[4-({6-[(2-chloro-4-cyclopropylphenoxy)methyl]pyridin-2-yl}methyl)piperidin-1-yl]methyl}-1-[(1-ethyl-1H-imidazol-5-yl)methyl]-1H-1,3-benzodiazole-6-carboxylic acid] was tested. Which EC50 did it give?
Answer: The EC50 was less than 50 nM.

Question: How did the EC50 turn out when `O=C(O)c1ccc2nc(CN3CCC(Oc4ccnc(COc5ccc(C(F)(F)F)cc5F)n4)CC3)n(C[C@@H]3CCO3)c2n1` [Compound 371] was run?
Answer: Its EC50 is less than 50 nM.

Question: Which EC50 does the source give for `O=C(O)c1ccc2nc(CN3CCC(Oc4cccc(COc5cc(Cl)cc(Cl)c5)c4)CC3)n(C[C@@H]3CCO3)c2c1` [Compound 242, 2-[(4-{3-[(3,5-dichlorophenoxy)methyl]phenoxy}piperidin-1-yl)methyl]-1-{[(2S)-oxetan-2-yl]methyl}-1H-1,3-benzodiazole-6-carboxylic acid] here?
Answer: Its EC50 is less than 50 nM.

Question: With `N#Cc1cc(Cl)ccc1OCc1cccc(CC2CCN(Cc3nc4ccc(C(=O)O)cc4n3C[C@H]3CCOC3)CC2)c1` [Compound 158, 2-{[4-({3-[(4-chloro-2-cyanophenoxy)methyl]phenyl}methyl)piperidin-1-yl]methyl}-1-{[(3R)-oxolan-3-yl]methyl}-1H-1,3-benzodiazole-6-carboxylic acid] as the molecule, how does the EC50 read?
Answer: Its EC50 is less than 50 nM.

Question: `O=C(O)c1cc(F)c2nc(CN3CCC(N(CC4CC4)c4ccnc(COc5ccc(Cl)cc5F)n4)CC3)n(C[C@@H]3CCO3)c2c1` [Compound 511, 2-{[4-({2-[(4-chloro-2-fluorophenoxy)methyl]pyrimidin-4-yl}(cyclopropylmethyl)amino)piperidin-1-yl]methyl}-4-fluoro-1-{[(2S)-oxetan-2-yl]methyl}-1H-1,3-benzodiazole-6-carboxylic acid] was tested. Which EC50 did it give?
Answer: The EC50 was less than 50 nM.

Question: Which EC50 does the source give for `O=C(O)c1ccc2nc(CN3CCC(Oc4cccc(COc5ccc(Cl)cc5F)n4)CC3)n(Cc3ncco3)c2c1` [Compound 268, 2-{[4-({6-[(4-chloro-2-fluorophenoxy)methyl]pyridin-2-yl}oxy)piperidin-1-yl]methyl}-1-[(1,3-oxazol-2-yl)methyl]-1H-1,3-benzodiazole-6-carboxylic acid] here?
Answer: The EC50 was less than 50 nM.

Question: With `O=C(O)c1ccc2nc(CN3CCC(Oc4ccnc(COc5ccc(Cl)cc5F)c4)CC3)n(Cc3ncco3)c2c1` [Compound 258, 2-{[4-({2-[(4-chloro-2-fluorophenoxy)methyl]pyridin-4-yl}oxy)piperidin-1-yl]methyl}-1-[(1,3-oxazol-2-yl)methyl]-1H-1,3-benzodiazole-6-carboxylic acid] as the molecule, how does the EC50 read?
Answer: The EC50 was less than 50 nM.

Question: For `C[C@H]1C[C@@H](Oc2ccnc(COc3ccc(C#N)cc3Cl)n2)CCN1Cc1nc2ccc(C(=O)O)cc2n1C[C@@H]1CCO1` [Compound 477, 2-{[(2S,4S)-4-({2-[(2-chloro-4-cyanophenoxy)methyl]pyrimidin-4-yl}oxy)-2-methylpiperidin-1-yl]methyl}-1-{[(2S)-oxetan-2-yl]methyl}-1H-1,3-benzodiazole-6-carboxylic acid], which EC50 is on record?
Answer: Its EC50 is less than 50 nM.

Question: `O=C(O)c1ccc2nc(CN3CCN(Cc4ccc(COc5ccccc5)o4)CC3)n(C[C@@H]3CCO3)c2c1` [Example 20, (S)-1-(Oxetan-2-ylmethyl)-2-((4-((5-(phenoxymethyl)furan-2-yl)methyl)piperazin-1-yl)methyl)-1H-benzo[d]imidazole-6-carboxylic acid] was tested. Which EC50 did it give?
Answer: The EC50 was greater than 500 nM.

Question: With `Cc1ccc(OCc2cccc(C(=O)N3CCN(Cc4nc5ccc(C(=O)O)cc5n4C[C@@H]4CCO4)CC3)c2)c(Cl)c1` [Compound 64, 2-[(4-{3-[(2-chloro-4-methylphenoxy)methyl]benzoyl}piperazin-1-yl)methyl]-1-{[(2S)-oxetan-2-yl]methyl}-1H-1,3-benzodiazole-6-carboxylic acid] as the molecule, how does the EC50 read?
Answer: The EC50 was 50 to 500 nM.

Question: Which EC50 does the source give for `CCn1cncc1Cn1c(CN2CCC(C)(Cc3ccnc(COc4ccc(Cl)cc4Cl)c3)CC2)nc2ccc(C(=O)O)cc21` [Example 163, 2-((4-((2-((2,4-Dichlorophenoxy)methyl)pyridin-4-yl)methyl)-4-methylpiperidin-1-yl)methyl)-1-((1-ethyl-1H-imidazol-5-yl)methyl)-1H-benzo[d]imidazole-6-carboxylic acid] here?
Answer: Its EC50 is less than 50 nM.

Question: For `N#Cc1cc(F)ccc1OCc1cccc(OC2CCN(Cc3nc4c(F)cc(C(=O)O)cc4n3C[C@@H]3CCO3)CC2)c1` [Compound 317], which EC50 is on record?
Answer: The EC50 was less than 50 nM.

Question: With `Cc1ccc(Cc2cccc(C(=O)N3CCN(Cc4nc5ccc(C(=O)O)cc5n4C[C@@H]4CCO4)CC3)c2)cc1` [Compound 33, 2-[(4-{3-[(4-methylphenyl)methyl]benzoyl}piperazin-1-yl)methyl]-1-{[(2S)-oxetan-2-yl]methyl}-1H-1,3-benzodiazole-6-carboxylic acid] as the molecule, how does the EC50 read?
Answer: The EC50 was greater than 500 nM.

Question: How did the EC50 turn out when `N#Cc1cc(Cl)ccc1OCc1cc(OC2CCN(Cc3nc4ccc(C(=O)O)cc4n3Cc3ccno3)CC2)ccn1` [Compound 241, 2-{[4-({2-[(4-chloro-2-cyanophenoxy)methyl]pyridin-4-yl}oxy)piperidin-1-yl]methyl}-1-[(1,2-oxazol-5-yl)methyl]-1H-1,3-benzodiazole-6-carboxylic acid] was run?
Answer: The EC50 was less than 50 nM.

Question: For `N#Cc1cc(Cl)ccc1OCc1cccc(OC2CCN(Cc3nc4ccc(C(=O)O)cc4n3Cc3ncco3)CC2)n1` [Compound 251, 2-{[4-({6-[(4-chloro-cyanophenoxy)methyl]pyridin-2-yl}oxy)piperidin-1-yl]methyl}-1-[(1,3-oxazol-2-yl)methyl]-1H-1,3-benzodiazole-6-carboxylic acid], which EC50 is on record?
Answer: The EC50 was greater than 500 nM.

Question: Which EC50 does the source give for `O=C(O)c1ccc2nc(CN3CCC(Oc4ccnc(COc5ccc(Cl)cc5Cl)c4)CC3)n(Cc3ncco3)c2c1` [Compound 170, 2-{[4-({2-[(2,4-dichlorophenoxy)methyl]pyridin-4-yl}oxy)piperidin-1-yl]methyl}-1-[(1,3-oxazol-2-yl)methyl]-1H-1,3-benzodiazole-6-carboxylic acid] here?
Answer: Its EC50 is less than 50 nM.

Source: patent US20230089073A1 (Carmot Therapeutics, Inc., priority 2021, published 2023)
